Measurements as given in article PMC9084241, “The structure and configuration changes of multifunctional peptide vectors enhance gene delivery efficiency” (RSC Advances, 2018).
Where a SMILES comes first, the peptide text is derived from it. [ ]: non-standard residue; d: D form. The star is where a group is joined. Stearoyl = CCCCCCCCCCCCCCCCCC(=O)*

Test: Enzymatic hydrolysis stability
Assay type: in vitro ADME
Settings: Tritirachium album (Parengyodontium album), peptide 8.0 mg/mL and proteinase K 2.0 mg/mL in PBS mixed 0.5 mL + 0.5 mL, 37 °C, HPLC peak area, mean n = 3
Method: Peptides and proteinase K were dissolved in PBS and then diluted to 8.0 mg mL^−1 and 2.0 mg mL^−1, respectively. For each peptide tested, 0.5 mL of peptide solution was mixed with 0.5 mL proteinase K solution and then incubated in a water bath at 37 °C. After 0, 5, 15, 30, 60, and 120 min, a 10 µL sample of the mixture was withdrawn and 30 µL of a precipitator solution (1.0 mL of TFA in 9.0 mL acetonitrile) was added. Each sample was subsequently vortexed for 5 s and centrifuged for 10 min at 4 °C. Supernatants were analyzed by HPLC, with the peak area of each peptide recorded and used to calculate hydrolysis efficiency.

| SMILES | remaining at 1 h, 4 mg/mL (60 min, read-out: peptide remaining after incubation with proteinase K) [%] | metabolised at 1 h, 4 mg/mL (within 60 min, read-out: peptide degraded by proteinase K) [%] |
| --- | --- | --- |
| CCCCCCCCCCCCCCCCCC(=O)N[C@H](CS)C(=O)N[C@H](CC(C)C)C(=O)N[C@H](CC(C)C)C(=O)N[C@H](CCCCN)C(=O)N[C@H](CCCCN)C(=O)N[C@H](CC(C)C)C(=O)N[C@H](CC(C)C)C(=O)N[C@H](CCCCN)C(=O)N[C@H](CCCCN)C(=O)N[C@H](CC(C)C)C(=O)N[C@H](CC(C)C)C(=O)N[C@H](CCCCN)C(=O)N[C@H](CCCCN)C(=O)N[C@H](CS)C(=O)N[C@H](Cc1c[nH]cn1)C(=O)N[C@H](Cc1c[nH]cn1)C(=O)N[C@H](Cc1c[nH]cn1)C(=O)N[C@H](Cc1c[nH]cn1)C(=O)N[C@H](Cc1c[nH]cn1)C(=O)N[C@H](Cc1c[nH]cn1)C(=O)N[C@H](CCCNC(=N)N)C(=O)N[C@H](CCCNC(=N)N)C(=O)N[C@H](CCCNC(=N)N)C(=O)N[C@H](CCCNC(=N)N)C(=O)N[C@H](CCCNC(=N)N)C(=O)N[C@H](CCCNC(=N)N)C(=O)N[C@H](CCCNC(=N)N)C(=O)N[C@H](CCCNC(=N)N)C(=O)N[C@H](CCCNC(=N)N)C(N)=O [P-04] (Stearoyl-[dC][dL][dL][dK][dK][dL][dL][dK][dK][dL][dL][dK][dK][dC][dH][dH][dH][dH][dH][dH][dR][dR][dR][dR][dR][dR][dR][dR][dR]-NH2) | 70 | – |
| CCCCCCCCCCCCCCCCCC(=O)N[C@@H](CS)C(=O)N[C@@H](CC(C)C)C(=O)N[C@@H](CC(C)C)C(=O)N[C@@H](CCCCN)C(=O)N[C@@H](CCCCN)C(=O)N[C@@H](CC(C)C)C(=O)N[C@@H](CC(C)C)C(=O)N[C@@H](CCCCN)C(=O)N[C@@H](CCCCN)C(=O)N[C@@H](CC(C)C)C(=O)N[C@@H](CC(C)C)C(=O)N[C@@H](CCCCN)C(=O)N[C@@H](CCCCN)C(=O)N[C@@H](CS)C(=O)N[C@@H](Cc1c[nH]cn1)C(=O)N[C@@H](Cc1c[nH]cn1)C(=O)N[C@@H](Cc1c[nH]cn1)C(=O)N[C@@H](Cc1c[nH]cn1)C(=O)N[C@@H](Cc1c[nH]cn1)C(=O)N[C@@H](Cc1c[nH]cn1)C(=O)N[C@@H](CCCNC(=N)N)C(=O)N[C@@H](CCCNC(=N)N)C(=O)N[C@@H](CCCNC(=N)N)C(=O)N[C@@H](CCCNC(=N)N)C(=O)N[C@@H](CCCNC(=N)N)C(=O)N[C@@H](CCCNC(=N)N)C(=O)N[C@@H](CCCNC(=N)N)C(=O)N[C@@H](CCCNC(=N)N)C(=O)N[C@@H](CCCNC(=N)N)C(N)=O [P-03] (Stearoyl-CLLKKLLKKLLKKCHHHHHHRRRRRRRRR-NH2) | – | 82 |
